Test results taken from patent US8227468B2, “Cathepsin S inhibitor compounds” (Eli Lilly and Company, priority 2010, dated 2012).

Tests used:
mouse cathepsin S = target: T1, mouse cathepsin S (Mus musculus, UniProt O70370); assay: mouse cathepsin S enzyme inhibitor assay; type: biochemical
T1 construct: histidine tag; made in house
Procedure: (§1) Potency assays for human cathepsin S and mouse cathepsin S and selectivity assays for human cathepsins L, B, K, V, and F are described below. The experimental conditions and/or materials of each assay differ slightly and therefore such differences are noted either directly within the general assay conditions or coded according to the respective enzyme assay using designations 1a through 1 g in Table 1 immediately following the general assay conditions.
(§2) Test compounds are prepared in DMSO to make up a 10 mM stock solution. The stock solution is serially diluted in DMSO to obtain a ten-point dilution curve with a final compound concentration range 1a in a 96-well round-bottom plate before conducting the in vitro enzymatic assay.
(§3) Amount 1c of substrate, benzyloxycarbonyl-L-leucyl-L-arginine-4-methyl-coumaryl-7-amide (Peptide Institute), prepared in assay buffer, is added to each well of the plate for a final concentration 1d. Amount 1e of the respective enzyme, described immediately hereafter, prepared in assay buffer is added to each well of the plate containing substrate and test compound resulting in a final concentration 1f to initiate the reaction. • Human cathepsins S, L, K, and V: Obtained from Calbiochem. • Mouse cathepsin S: Briefly, mouse cathepsin S is cloned in baculovirus using a mCathepsin S-pAN51(T760) construct containing a histidine tag. […]

p10 in PWBC = assay: p10 Accumulation Assay; type: in vivo, mouse; conditions: 4 hr.; for In vivo relative p10 accumulation in PWBC: mice, relative to vehicle, normalized with tubulin, mean ± SD
Procedure: After 4 hr., whole blood (300-500 μL) is drawn from each mouse. The step of removing red blood cells is performed by adding one mL Flow Cytometry Lysing Solution™ (Santa Cruz Biotechnology, Inc.), keeping at room temperature for 10 min., centrifuging at 4000 rpm for 5 min. and then discarding the supernatant. This step is repeated once to remove the red blood cells completely. The PWBC pellet is resuspended with 50 μL CytoBuster™ Reagent (Novagen) and sonicated at high power for 5-10 sec.
The p10 amount is determined using a Western blot. […] Gels are run at 120 V for 60 min. with the NUPAGE® MES SDS running buffer (Invitrogen). Proteins are transferred to 0.2 μm nitrocellulose (BIO-RAD) at 100 V for 30 min. with NUPAGE® Transfer Buffer (Invitrogen) and 20% methanol (EMD). Blot is briefly rinsed with PBS and blocked in 10 mL in ODYSSEY® Blocking Buffer (LI-COR Biosciences) at room temperature for 60 min. For p10, the blot is incubated with primary antibody against mouse CD74 (1 μg/ml of rat anti-CD74 antibody)(BD Bioscience) in blocking buffer at 4° C. overnight. For tubulin control, the blot is incubated with rabbit anti-beta tubulin pAb (0.2 μg/ml)(Abcam) in blocking buffer at 4° C. overnight. The blot is washed with washing buffer (DPBS from HyClone) with 0.01% polysorbate 20 four times for 10 min. each. The blot is then incubated with secondary antibody at room temperature for 60 min. For p10, ALEXA FLUOR® 680 goat anti rat IgG (1:5000 dilution)(Invitrogen) is used. For tubulin, ALEXA FLUOR® 680 goat anti rabbit IgG (1:5000 dilution)(Invitrogen). The blot is again washed as described above and placed in PBS for scanning.
The images are captured by scanning on an ODYSSEY® Infrared Imager (LI-COR Biosciences). The p10 amount is analyzed with ODYSSEY® software and normalized with the tubulin amount. The data are statistically analyzed with JMP® 7 software (Cary, N.C.). Values are represented as means±standard deviation.

human cathepsin S = target: T2, human cathepsin S (Homo sapiens, UniProt P25774); assay: human cathepsin S enzyme inhibitor assay; type: biochemical
T2 construct: purchased Calbiochem
T2 sequence (P25774 115-331): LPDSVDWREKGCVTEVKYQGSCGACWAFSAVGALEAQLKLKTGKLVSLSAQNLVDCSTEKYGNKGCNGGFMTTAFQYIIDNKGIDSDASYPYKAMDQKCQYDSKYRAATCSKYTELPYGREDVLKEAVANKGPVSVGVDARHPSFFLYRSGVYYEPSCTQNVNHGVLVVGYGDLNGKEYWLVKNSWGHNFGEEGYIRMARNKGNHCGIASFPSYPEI
Procedure: as §1, §2, §3

human cathepsin L = target: T3, human cathepsin L (Homo sapiens, UniProt P07711); assay: human cathepsin L enzyme inhibitor (selectivity) assay; type: biochemical
T3 construct: purchased Calbiochem
T3 sequence (P07711 114-333): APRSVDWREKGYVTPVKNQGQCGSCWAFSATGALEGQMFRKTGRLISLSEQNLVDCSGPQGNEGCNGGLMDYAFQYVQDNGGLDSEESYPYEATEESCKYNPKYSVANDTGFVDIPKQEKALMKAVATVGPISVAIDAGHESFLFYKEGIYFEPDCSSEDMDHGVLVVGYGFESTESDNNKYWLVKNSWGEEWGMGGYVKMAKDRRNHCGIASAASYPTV
Procedure: as §1, §2, §3

human cathepsin B = human cathepsin B (Homo sapiens, UniProt P07858); assay: human cathepsin B enzyme inhibitor (selectivity) assay; type: biochemical
Procedure: as §1, §2, §3

human cathepsin V = target: T4, human cathepsin V (Homo sapiens, UniProt O60911); assay: human cathepsin V enzyme inhibitor (selectivity) assay; type: biochemical
T4 construct: purchased Calbiochem
T4 sequence (O60911 114-334): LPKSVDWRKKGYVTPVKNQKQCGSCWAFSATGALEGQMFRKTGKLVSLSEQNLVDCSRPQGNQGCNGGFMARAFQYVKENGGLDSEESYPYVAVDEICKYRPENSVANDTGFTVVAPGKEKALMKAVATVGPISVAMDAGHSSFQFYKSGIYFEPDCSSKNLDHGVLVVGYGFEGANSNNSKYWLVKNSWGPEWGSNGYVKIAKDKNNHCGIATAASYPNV
Procedure: as §1, §2, §3

[1] = tested on: CaCl2-induced AAA (aortic luminal perimeter); assay: CaCl2-induced AAA Animal Efficacy Model; type: in vivo, mouse; conditions: for In Vivo Percentage (%) Reduction of AAA: 129SvEv mice, aortic luminal perimeter by ultrasound, mean ± SD
Procedure: The first dose is given one day prior to surgery (p.m.) and the second dose is given the morning of surgery. […] B.i.d. dosing (a.m. and p.m.) is continued the day after surgery for 28 days. On the day of surgery, animals received analgesia ([…]®, 0.1 mg/kg) subcutaneously 10 min. pre-operatively and 3 hr. post-operatively. Mice are anesthetized by inhalation of 2% isoflurane and a laparotomy is performed. The abdominal aorta is exposed by retracting the bowel laterally with a surgical retractor and leaving the bowel in the abdominal cavity. […] Once isolated, the region of interest of the abdominal aorta is wrapped with a premeasured sterile cotton gauze soaked in 0.25 M aqueous CaCl2 solution. In sham control animals, 0.9% saline is substituted for CaCl2. After 7 min., the gauze is removed and a second CaCl2 soaked gauze (or 0.9% saline soaked gauze in sham animals) is applied. Following a second 7 minute period, the gauze is removed, the aorta is rinsed with 0.9% saline and the abdomen is closed. […] After 4 weeks of dosing as described above, the aortic luminal perimeter, area and diameter of the aortic segments that were wrapped with gauze are determined by ultrasound (Biosound Ultrasound-7.5 MHz) and statistically analyzed with JMP® 7 software (Cary, N.C.).

human cathepsin K = target: T5, human cathepsin K (Homo sapiens, UniProt P43235); assay: human cathepsin K enzyme inhibitor (selectivity) assay; type: biochemical
T5 construct: purchased Calbiochem
T5 sequence (P43235 115-329): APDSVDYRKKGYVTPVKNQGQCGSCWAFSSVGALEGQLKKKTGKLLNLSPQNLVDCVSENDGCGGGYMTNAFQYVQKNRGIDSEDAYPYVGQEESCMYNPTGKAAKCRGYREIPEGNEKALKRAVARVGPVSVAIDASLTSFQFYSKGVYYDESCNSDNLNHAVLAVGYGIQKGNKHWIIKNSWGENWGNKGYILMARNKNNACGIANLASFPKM
Procedure: as §1, §2, §3

## CNC(=O)O[C@H]1CCc2ccc(N3CCN(C4COC4)CC3)cc2[C@@H]1NC(=O)c1ccc(F)cc1 [Example 2, [(1S,2S)-1-[(4-Fluorobenzoyl)amino]-7-[4-(oxetan-3-yl)piperazin-1-yl]tetralin-2-yl] N-methylcarbamate]
Mouse cathepsin S
  IC50: ~0.0039 µM
p10 in PWBC; 3 mg/kg oral gavage
  In vivo relative p10 accumulation in PWBC: 1.1 ± 0.7 fold increase
p10 in PWBC; 10 mg/kg oral gavage
  In vivo relative p10 accumulation in PWBC: 2.2 ± 1.3 fold increase
p10 in PWBC; 30 mg/kg oral gavage
  In vivo relative p10 accumulation in PWBC: 4.6 ± 1.2 fold increase
p10 in PWBC; 3-30 mg/kg oral
  effect on p10 in PWBC (in words): dose dependently increase p10 in PWBC
Human cathepsin S
  IC50: ~0.0102 µM
Human cathepsin L
  IC50: > 167 µM
Human cathepsin B
  IC50: ~94 µM
Human cathepsin V
  IC50: > 100 µM
[1]; 1 mg/kg oral gavage b.i.d. 4 weeks
  In Vivo Percentage (%) Reduction of AAA: 11 ± 7%
[1]; 3 mg/kg oral gavage b.i.d. 4 weeks
  In Vivo Percentage (%) Reduction of AAA: 32 ± 9%
[1]; 10 mg/kg oral gavage b.i.d. 4 weeks
  In Vivo Percentage (%) Reduction of AAA: 43 ± 9%
[1]; 30 mg/kg oral gavage b.i.d. 4 weeks
  In Vivo Percentage (%) Reduction of AAA: 52 ± 7%
[1]; 1-30 mg/kg oral b.i.d. 4 weeks
  effect on aortic luminal perimeter (in words): reduce the aortic luminal perimeter in a dose-dependent manner
Human cathepsin K
  IC50: > 100 µM
